Earlier results, collected in patent US8748695B2, “Molecular markers linked to PPO inhibitor tolerance in soybeans” (Pioneer Hi-Bred International, Inc., priority 2008, dated 2014).

What was measured:
soybean cultivars = details: in vivo

Structure (SMILES)	Growth Reduction Index (soybean cultivars)	half-life
Cc1nn(-c2cc(NS(C)(=O)=O)c(Cl)cc2Cl)c(=O)n1C(F)F [sulfentrazone]	20%	
Cc1nn(-c2cc(CC(Cl)C(=O)O)c(Cl)cc2F)c(=O)n1C(F)F (centres unmarked) [Carfentrazone]		approximately 4 days
